What was measured:
[1] = tested on: TNF; assay: TNF IC50 (column of Table 1; method not in the text shown); type: cell-based
[2] = target: T1, SIRT1 (Homo sapiens, UniProt Q96EB6); assay: Mass spectrometry based assay to identify modulators of SIRT1 activity (deacetylation of p53-based acetylated peptide substrate); type: biochemical; settings: for Emax: 25 min, SIRT1 activation, read-out: % FOLD ACT. (percent maximum fold activation)
T1 sequence (Q96EB6 1-747): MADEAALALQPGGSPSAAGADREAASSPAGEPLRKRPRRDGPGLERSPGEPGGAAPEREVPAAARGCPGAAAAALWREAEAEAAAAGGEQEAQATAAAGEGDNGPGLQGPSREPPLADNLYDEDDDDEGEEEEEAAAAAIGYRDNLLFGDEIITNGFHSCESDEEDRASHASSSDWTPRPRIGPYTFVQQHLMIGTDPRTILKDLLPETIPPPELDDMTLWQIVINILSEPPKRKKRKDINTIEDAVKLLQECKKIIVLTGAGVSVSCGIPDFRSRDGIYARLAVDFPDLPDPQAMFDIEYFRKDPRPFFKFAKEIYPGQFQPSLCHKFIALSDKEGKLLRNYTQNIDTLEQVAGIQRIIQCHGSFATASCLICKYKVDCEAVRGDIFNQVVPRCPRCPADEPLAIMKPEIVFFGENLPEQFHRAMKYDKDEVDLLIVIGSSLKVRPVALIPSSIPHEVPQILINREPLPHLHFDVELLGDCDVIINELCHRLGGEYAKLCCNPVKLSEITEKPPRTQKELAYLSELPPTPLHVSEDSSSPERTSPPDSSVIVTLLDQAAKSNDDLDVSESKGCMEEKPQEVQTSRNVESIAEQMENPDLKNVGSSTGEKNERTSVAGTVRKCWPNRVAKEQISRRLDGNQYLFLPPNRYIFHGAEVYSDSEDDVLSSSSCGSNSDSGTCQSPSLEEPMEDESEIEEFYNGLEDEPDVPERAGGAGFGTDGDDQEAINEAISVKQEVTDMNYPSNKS
Procedure, shortened: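 His-tagged human SIRT1 (10 nM, E. coli) incubated 25 min at 25 °C with […] p53-derived acetylated 5TMR peptide and 120 μM βNAD+ in pH 8 Tris-acetate buffer, then formic acid-stopped. Mass spectrometry quantifies acetylated vs deacetylated peptide; nicotinamide and DMSO controls.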

SMILES | IC50 [1] | EC1.5 (concentration giving 1.5-fold activation) [2] | Emax [2]
O=C(Nc1ccnc(OCC(O)CO)n1)N1CCCOc2ccc(-c3cccc(Cl)c3)nc21 (stereo not drawn) [Compound 876] | < 20 µM | < 1000 nM | > 200%
CCN1CCCN(C(=O)Nc2nc(C)cs2)c2nc(-c3cccc(Cl)c3)ccc21 [Compound 794] | < 20 µM | < 1000 nM | > 200%
CCN1CCCN(C(=O)Nc2ccnc(C)c2)c2nc(-c3cccc(Cl)c3)ccc21 [Compound 795] | < 20 µM | < 1000 nM | > 200%
O=C(Nc1ccc2nccnc2c1)N1CCCOc2ccc(-c3cccc(Cl)c3)nc21 [Compound 881] | ≥ 20 µM | < 1000 nM | > 200%
Cc1csc(NC(=O)N2CCC(C)c3ccc(-c4cccc(C(F)(F)F)c4)nc32)n1 (stereo not drawn) [Compound 787] | ≥ 20 µM | < 1000 nM | > 200%
O=C(Nc1ccc2nccn2c1)N1CCCOc2ccc(-c3cccc(Cl)c3)nc21 [Compound 880] | < 20 µM | < 1000 nM | > 200%
O=C(Nc1ccnc(OC[C@H](O)CO)c1)N1CCCOc2ccc(-c3cccc(Cl)c3)nc21 [Compound 864] | < 20 µM | 1000 to 25000 nM | > 200%
CC1CCN(C(=O)Nc2ccncc2F)c2nc(-c3cccc(C(F)(F)F)c3)ccc21 (stereo not drawn) [Compound 804] | < 20 µM | < 1000 nM | > 200%
O=C(Nc1ccnc(N2CCC2)c1)N1CCOc2cnc(-c3cccc(C(F)(F)F)c3)nc21 [Compound 713] | ≥ 20 µM | < 1000 nM | > 200%
CC1(C)CCN(C(=O)Nc2ccnc(OC[C@H](O)CO)n2)c2nc(-c3cccc(C(F)(F)F)c3)ccc21 [Compound 845] | < 20 µM | < 1000 nM | > 200%
Cc1csc(NC(=O)N2CCC(C)(C)c3ccc(-c4cccc(C(F)(F)F)c4)nc32)n1 [Compound 839] | < 20 µM | < 1000 nM | > 200%
Cn1cc2ccc(NC(=O)N3CCCOc4ccc(-c5cccc(Cl)c5)nc43)cc2n1 [Compound 883] | < 20 µM | < 1000 nM | > 200%
Cc1csc(NC(=O)N2CC(C)(C)Oc3ccc(-c4cccc(N5CC[C@@H](F)C5)c4)nc32)n1 [Compound 707] | ≥ 20 µM | < 1000 nM | > 200%
O=C(Nc1ccnc(OC[C@H](O)CO)n1)N1CCC(F)(F)c2ccc(-c3cccc(C(F)(F)F)c3)nc21 [Compound 825] | < 20 µM | < 1000 nM | > 200%
O=C(Nc1cccnc1)N1CCCc2ccc(-c3cccnc3)nc21 [Compound 886] | ≥ 20 µM | 1000 to 25000 nM | > 200%

Next, values leading:

IC50 [1] | EC1.5 (concentration giving 1.5-fold activation) [2] | Emax [2] | SMILES
< 20 µM | < 1000 nM | > 200% | O=C(Nc1cccc(N2CC3(CCO3)C2)n1)N1CCc2ccc(-c3cccc(C(F)(F)F)c3)nc21 [Compound 869]
≥ 20 µM | < 1000 nM | > 200% | O=C(Nc1ccncn1)N1CCc2ccc(-c3cccc(C(F)(F)F)c3)nc21 [Compound 850]
≥ 20 µM | < 1000 nM | > 200% | O=C(Nc1ccnc(OCC(O)CO)n1)N1CCOc2ccc(-c3cccc(C(F)(F)F)c3)nc21 (stereo not drawn) [Compound 697]
≥ 20 µM | < 1000 nM | > 200% | O=C(Nc1ccnc(OCC(O)CO)n1)N1CCc2ccc(-c3cccc(C(F)(F)F)c3)nc21 (stereo not drawn) [Compound 874]
< 20 µM | < 1000 nM | > 200% | CC1CCN(C(=O)Nc2ccncc2)c2nc(-c3cccc(C(F)(F)F)c3)ccc21 (stereo not drawn) [Compound 786, 4-methyl-N-(pyridin-4-yl)-7-(3-(trifluoromethyl)phenyl)-3,4-dihydro-1,8-naphthyridine-1(2H)-carboxamide]
≥ 20 µM | < 1000 nM | > 200% | O=C(Nc1ccccn1)N1CCc2ccc(-c3cccc(C(F)(F)F)c3)nc21 [Compound 861, N-(pyridin-2-yl)-6-(3-(trifluoromethyl)phenyl)-2,3-dihydro-1H-pyrrolo[2,3-b]pyridine-1-carboxamide]
< 20 µM | < 1000 nM | > 200% | CC1CCN(C(=O)Nc2cccc(OC[C@@H](O)CO)n2)c2nc(-c3cccc(C(F)(F)F)c3)ccc21 (stereo partly drawn) [Compound 801]
< 20 µM | < 1000 nM | > 200% | O=C(Nc1cccc(N2CC3(COC3)C2)n1)N1CCc2ccc(-c3cccc(C(F)(F)F)c3)nc21 [Compound 877]
< 20 µM | < 1000 nM | > 200% | O=C(Nc1cc(OCC(O)CO)ccn1)N1CCc2ccc(-c3cccc(C(F)(F)F)c3)nc21 (stereo not drawn) [Compound 875]
< 20 µM | < 1000 nM | > 200% | CC1CCN(C(=O)Nc2ccncn2)c2nc(-c3cccc(C(F)(F)F)c3)ccc21 (stereo not drawn) [Compound 805]
